Literature values in US7354953B2, “Time-release compositions for delivery of [Cr3O(carboxylate)6(H2O)3]+” (University of Alabama, priority 2006, dated 2008).

How the values were obtained:
[1] = molecular target: insulin receptor (Homo sapiens, UniProt P06213)
[2] = system: healthy and model type 2 diabetic rats
[3] = system: colorectal cancer in rat
[4] = in vivo
[5] = system: DNA
[6] = system: rats; conditions: for effect on body mass, percentage lean or fat content, tissue size, blood variables: rats on regular diets
[7] = system: adult-onset diabetic patients
[8] = system: chromosome
[9] = healthy and model type 2 diabetic rats

Sequence of insulin receptor (P06213 763-1382 limits assumed, species assumed): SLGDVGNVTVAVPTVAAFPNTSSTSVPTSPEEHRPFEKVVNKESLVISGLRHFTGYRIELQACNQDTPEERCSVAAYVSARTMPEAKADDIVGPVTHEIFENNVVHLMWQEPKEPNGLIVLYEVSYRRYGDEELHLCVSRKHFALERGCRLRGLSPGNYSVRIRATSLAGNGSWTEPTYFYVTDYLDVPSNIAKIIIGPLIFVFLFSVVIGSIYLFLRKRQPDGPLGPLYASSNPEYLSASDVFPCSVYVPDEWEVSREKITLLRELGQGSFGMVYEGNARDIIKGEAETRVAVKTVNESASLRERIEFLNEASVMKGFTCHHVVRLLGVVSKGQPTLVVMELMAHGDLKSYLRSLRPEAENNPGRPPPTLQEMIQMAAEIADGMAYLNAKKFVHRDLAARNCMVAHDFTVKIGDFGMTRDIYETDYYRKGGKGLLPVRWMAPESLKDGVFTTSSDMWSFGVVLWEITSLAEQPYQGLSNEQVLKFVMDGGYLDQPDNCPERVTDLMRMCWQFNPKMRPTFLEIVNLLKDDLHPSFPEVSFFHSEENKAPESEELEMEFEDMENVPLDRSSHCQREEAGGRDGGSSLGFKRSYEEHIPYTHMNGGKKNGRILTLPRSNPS
Sequence of insulin receptor (P06213 28-758 partner limits assumed, species assumed): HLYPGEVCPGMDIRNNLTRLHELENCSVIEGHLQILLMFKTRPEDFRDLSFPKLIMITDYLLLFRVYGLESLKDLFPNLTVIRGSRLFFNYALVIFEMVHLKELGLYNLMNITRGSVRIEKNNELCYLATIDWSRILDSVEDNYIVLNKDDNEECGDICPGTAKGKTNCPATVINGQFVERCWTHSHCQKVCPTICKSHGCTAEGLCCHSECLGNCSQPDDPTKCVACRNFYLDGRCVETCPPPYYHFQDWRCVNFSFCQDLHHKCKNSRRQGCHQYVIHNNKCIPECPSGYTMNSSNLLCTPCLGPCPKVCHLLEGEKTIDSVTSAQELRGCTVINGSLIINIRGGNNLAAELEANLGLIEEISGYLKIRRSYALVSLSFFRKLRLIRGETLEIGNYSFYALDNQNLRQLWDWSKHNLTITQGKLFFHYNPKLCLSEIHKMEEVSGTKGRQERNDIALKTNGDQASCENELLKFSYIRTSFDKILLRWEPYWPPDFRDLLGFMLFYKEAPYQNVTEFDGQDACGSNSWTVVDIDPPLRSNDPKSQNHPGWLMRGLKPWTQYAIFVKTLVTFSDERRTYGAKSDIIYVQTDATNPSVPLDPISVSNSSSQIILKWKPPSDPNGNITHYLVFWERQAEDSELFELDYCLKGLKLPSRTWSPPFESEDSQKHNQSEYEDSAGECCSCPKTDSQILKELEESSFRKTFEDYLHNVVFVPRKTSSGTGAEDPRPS

Compound	ability to stimulate insulin receptor kinase activity [1]	glycated hemoglobin ([2]; diabetes models)	blood plasma cholesterol and triglycerides levels [2, 9]	insulin sensitivity [2, 9]	onset of colorectal cancer [3]	absorption (rate and efficiency, in words) [4]	absorption efficiency [4]	DNA cleavage [5]	effect on body mass, percentage lean or fat content, tissue size, blood variables [6]	insulin requirements ([7]; 138 adult-onset diabetic patients)	glycemic control ([7]; 180 adult-onset diabetic patients)	acute toxic effects ([6]; rats, up to 1500 μg/kg diet for up to 24 weeks)	chromosome damage [8]
CCC(=O)[O-].CCC(=O)[O-].CCC(=O)[O-].CCC(=O)[O-].CCC(=O)[O-].CCC(=O)[O-].O.O.O.[Cr+3].[Cr+3].[Cr+3].[O-2] [Complex 1, [[Cr3O(O2CCH2CH3)6(H2O)3]^+]	mimic the ability of LMWCr to stimulate insulin receptor kinase activity	reduce glycated hemoglobin	improve	increase insulin sensitivity	reduce the onset of colorectal cancer	absorbed very rapidly and very efficiently	40-60%	not to lead to DNA cleavage					
[Cl][Cr]([Cl])[Cl] [chromium chloride]									no effect				
chromium(III) tris(picolinate) [Cr(pic)3]							0.5-2%		no effect	reduced insulin requirements	improved glycemic control	no acute toxic effects	cause chromosome damage
